The target in experiment [1] is Adrenergic receptor alpha (Rattus norvegicus) (UniProt P15823+P23944+P43140+P22086+P19328+P22909). The experiment can be described thus: Selectivity ratio is the antilog of the difference between pA2 values at alpha1- and alpha2- adrenoceptors.
In experiment [2] the target is T1, Adrenergic receptor alpha-2 (Rattus norvegicus, UniProt P22086+P19328+P22909).
T1 sequence (P22086 whole entry): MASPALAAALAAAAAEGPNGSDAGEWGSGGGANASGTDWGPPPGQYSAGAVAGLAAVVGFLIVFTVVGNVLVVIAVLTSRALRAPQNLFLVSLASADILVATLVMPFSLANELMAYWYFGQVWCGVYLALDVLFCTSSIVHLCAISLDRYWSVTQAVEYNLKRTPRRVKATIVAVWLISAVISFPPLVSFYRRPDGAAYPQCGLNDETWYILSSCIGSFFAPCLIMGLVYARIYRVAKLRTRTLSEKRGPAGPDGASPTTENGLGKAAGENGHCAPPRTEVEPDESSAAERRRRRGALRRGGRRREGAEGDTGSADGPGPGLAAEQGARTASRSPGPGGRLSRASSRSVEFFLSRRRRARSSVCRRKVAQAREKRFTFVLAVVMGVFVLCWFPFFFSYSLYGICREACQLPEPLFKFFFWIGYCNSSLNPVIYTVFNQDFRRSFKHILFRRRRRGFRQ
T1 sequence (P19328 whole entry): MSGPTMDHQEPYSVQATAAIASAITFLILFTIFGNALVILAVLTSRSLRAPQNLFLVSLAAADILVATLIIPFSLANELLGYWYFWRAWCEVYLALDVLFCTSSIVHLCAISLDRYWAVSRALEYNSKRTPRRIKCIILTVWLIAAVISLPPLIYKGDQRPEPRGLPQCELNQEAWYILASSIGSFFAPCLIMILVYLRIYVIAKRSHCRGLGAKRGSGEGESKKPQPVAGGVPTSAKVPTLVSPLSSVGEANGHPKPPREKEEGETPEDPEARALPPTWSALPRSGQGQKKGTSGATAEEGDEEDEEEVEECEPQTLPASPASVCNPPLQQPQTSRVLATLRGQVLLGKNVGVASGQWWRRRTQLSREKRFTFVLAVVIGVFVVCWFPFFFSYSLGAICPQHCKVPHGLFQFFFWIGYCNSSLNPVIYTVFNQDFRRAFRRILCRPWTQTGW
T1 sequence (P22909 whole entry): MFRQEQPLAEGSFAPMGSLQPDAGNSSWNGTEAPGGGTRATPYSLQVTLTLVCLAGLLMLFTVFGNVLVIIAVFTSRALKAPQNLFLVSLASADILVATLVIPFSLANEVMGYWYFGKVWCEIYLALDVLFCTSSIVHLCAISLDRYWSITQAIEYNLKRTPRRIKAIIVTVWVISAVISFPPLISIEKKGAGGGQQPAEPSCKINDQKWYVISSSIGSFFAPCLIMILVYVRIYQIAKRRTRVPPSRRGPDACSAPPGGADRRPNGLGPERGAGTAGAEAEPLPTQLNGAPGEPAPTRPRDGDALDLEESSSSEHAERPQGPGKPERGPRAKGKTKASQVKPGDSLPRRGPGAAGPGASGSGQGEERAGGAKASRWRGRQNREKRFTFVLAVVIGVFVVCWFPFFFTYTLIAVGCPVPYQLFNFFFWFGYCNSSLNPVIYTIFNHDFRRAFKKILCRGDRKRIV
The experiment can be described thus: Tested for the alpha-2-adrenoceptor blocking activity by antagonism of clonidine-induced depression of the twitch responses of the field-stimulated prostatic portion of isolated rat vas deferens (inactive up to 30 uM). The class given is functional, tissue-based.

For experiment [3], the target named is T2, Adrenergic receptor alpha-1 (Rattus norvegicus, UniProt P15823+P23944+P43140).
T2 sequence (P15823 whole entry): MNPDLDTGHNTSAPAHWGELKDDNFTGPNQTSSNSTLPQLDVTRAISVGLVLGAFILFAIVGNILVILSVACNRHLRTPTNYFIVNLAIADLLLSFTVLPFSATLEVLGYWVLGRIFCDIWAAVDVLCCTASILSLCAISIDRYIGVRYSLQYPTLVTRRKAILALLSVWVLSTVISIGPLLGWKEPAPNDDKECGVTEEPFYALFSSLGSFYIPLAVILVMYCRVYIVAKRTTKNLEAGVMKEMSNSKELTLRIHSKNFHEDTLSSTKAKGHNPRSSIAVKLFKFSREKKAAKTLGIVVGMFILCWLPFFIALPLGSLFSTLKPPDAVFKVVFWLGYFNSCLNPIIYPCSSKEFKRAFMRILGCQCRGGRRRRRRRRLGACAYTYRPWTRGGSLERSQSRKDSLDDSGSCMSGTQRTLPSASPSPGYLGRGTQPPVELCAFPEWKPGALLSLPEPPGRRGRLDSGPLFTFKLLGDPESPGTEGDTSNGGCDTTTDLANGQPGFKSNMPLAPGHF
T2 sequence (P23944 whole entry): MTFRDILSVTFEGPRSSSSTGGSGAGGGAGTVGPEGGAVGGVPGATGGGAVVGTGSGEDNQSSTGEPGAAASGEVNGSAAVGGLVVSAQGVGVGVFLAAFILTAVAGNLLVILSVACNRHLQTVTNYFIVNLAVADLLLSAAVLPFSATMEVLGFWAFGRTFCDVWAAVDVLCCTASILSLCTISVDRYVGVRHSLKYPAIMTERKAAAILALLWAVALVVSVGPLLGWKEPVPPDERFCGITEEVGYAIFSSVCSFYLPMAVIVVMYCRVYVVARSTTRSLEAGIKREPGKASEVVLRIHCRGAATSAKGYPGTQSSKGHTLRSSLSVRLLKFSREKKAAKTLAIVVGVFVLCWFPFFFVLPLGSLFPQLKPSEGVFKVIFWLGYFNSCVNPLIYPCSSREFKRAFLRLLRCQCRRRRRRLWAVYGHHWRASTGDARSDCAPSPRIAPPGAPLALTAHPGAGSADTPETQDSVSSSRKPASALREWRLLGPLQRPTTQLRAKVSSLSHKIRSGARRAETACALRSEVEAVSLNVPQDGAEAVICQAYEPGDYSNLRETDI
T2 sequence (P43140 whole entry): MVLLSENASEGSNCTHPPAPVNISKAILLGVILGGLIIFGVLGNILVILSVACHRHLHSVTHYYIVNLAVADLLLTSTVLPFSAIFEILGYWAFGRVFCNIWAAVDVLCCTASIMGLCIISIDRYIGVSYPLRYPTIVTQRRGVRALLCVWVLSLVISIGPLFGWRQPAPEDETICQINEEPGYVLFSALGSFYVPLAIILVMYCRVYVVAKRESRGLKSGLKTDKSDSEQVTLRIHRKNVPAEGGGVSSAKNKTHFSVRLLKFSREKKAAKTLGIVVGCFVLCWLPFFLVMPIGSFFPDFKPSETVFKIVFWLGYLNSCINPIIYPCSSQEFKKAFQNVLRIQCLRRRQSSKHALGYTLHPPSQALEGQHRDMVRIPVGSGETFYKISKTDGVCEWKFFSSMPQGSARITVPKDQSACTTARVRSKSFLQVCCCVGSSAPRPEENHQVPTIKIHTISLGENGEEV
As to the kind of experiment: Ex vivo alpha-1-adrenoceptor blocking activity by antagonism of (-)-norepinephrine -induced contractions of the epididymal portion of isolated rat vas deferens. The class given is functional.

The target of experiment [4] is T1, Adrenergic receptor alpha-2. As to the kind of experiment: Tested for the alpha-2-adrenoceptor blocking activity by antagonism of clonidine-induced depression of the twitch responses of the field-stimulated prostatic portion of isolated rat vas deferens. Type of experiment: functional, tissue-based.
The target is the same in experiment [5]. The experiment can be described thus: Tested for the alpha-2-adrenoceptor blocking activity by antagonism of clonidine-induced depression of the twitch responses of the field-stimulated prostatic portion of isolated rat vas deferens; inactive uM. The class given is functional.
The target is the same in experiment [6]. As to the kind of experiment: Tested for the alpha-2-adrenoceptor blocking activity by antagonism of clonidine-induced depression of the twitch responses of the field-stimulated prostatic portion of isolated rat vas deferens; at concentration 30 uM. The class given is functional.

Bounds are passed on as bounds.

In general, pA2 refers to the negative logarithm of the molar antagonist concentration that doubles the agonist concentration needed for the same response. A higher pA2 goes with a more potent antagonist. Consider `COc1cccc(OC)c1OCCNC[C@H]1Oc2ccccc2O[C@H]1C1CCCCC1`, for which the Ratio in experiment [1] is > 50. The pA2 in experiment [2] was < 4.52; in experiment [3], 6.2.
For `COc1cccc(OC)c1OCCNC[C@H]1Oc2ccccc2O[C@@H]1C(C)C`, the Ratio in experiment [1] is 4. Besides, the pA2 in experiment [4] stood at 5.94; in experiment [3] it was 6.57.
The like results for `COc1cccc(OC)c1OCCNC[C@H]1Oc2ccccc2O[C@H]1C(C)C` were, in that order, 2, 5.76 and 5.94.
The like results for `COc1cccc(OC)c1OCCNCC1COc2ccccc2O1` (stereo unspecified) were, in that order, 740, 6.39 and 9.26.
As to `COc1cccc(OC)c1OCCNC[C@H]1Oc2ccccc2O[C@@H]1C1CCCCC1`, the Ratio in experiment [1] was > 40. Also, the results for the pA2 in experiment [2] and in experiment [3] were < 4.52 and 6.09, respectively.
Regarding `COc1ccc([C@H]2Oc3ccccc3O[C@@H]2CNCCOc2c(OC)cccc2OC)cc1`, the Ratio in experiment [1] was > 14000. For the same molecule, the values for the pA2 in experiment [3] and in experiment [5] were 8.67 and < 4.52, respectively.
As to `COc1cccc(OC)c1OCCNC[C@H]1Oc2ccccc2O[C@H]1C`, in experiment [1], the Ratio amounted to 630. Also, the pA2 in experiment [4] is given as 5.7; in experiment [3], 8.5.
`COc1cccc(OC)c1OCCNC[C@H]1Oc2ccccc2O[C@H]1c1ccc(Cl)cc1`: the Ratio in experiment [1] came to 210. Moreover, the values for the pA2 in experiment [3] and in experiment [6] were 7.09 and 4.76, respectively.
The like results for `COc1cccc(OC)c1OCCNC[C@H]1Oc2ccccc2O[C@@H]1c1ccc(O)cc1` were, in that order, 1000, 7.84 and 4.82.
For the molecule `COc1cccc(OC)c1OCCNC[C@H]1Oc2ccccc2O[C@@H]1c1ccc(Cl)cc1`, the Ratio in experiment [1] came to 1000. Besides, the pA2 stood at 8.15 in experiment [3] and 5.17 in experiment [6].
In the case of `COc1cccc(OC)c1OCCNC[C@H]1Oc2ccccc2O[C@@H]1c1ccc(OC(C)=O)cc1`, the Ratio in experiment [1] came to 2600. The pA2 in experiment [4] is recorded as 4.87; in experiment [3], 8.12.
The like results for `COc1cccc(OC)c1OCCNC[C@H]1Oc2ccccc2O[C@@H]1C` were, in that order, 30, 6.46 and 7.94.
For the molecule `CCc1ccc([C@H]2Oc3ccccc3O[C@@H]2CNCCOc2c(OC)cccc2OC)cc1`, the Ratio in experiment [1] is > 2000. Besides, the figures for the pA2 in experiment [3] and in experiment [5] were 7.82 and < 4.52, respectively.
As to `COc1cccc(OC)c1OCCNC[C@H]1Oc2ccccc2O[C@@H]1c1ccccc1`, the Ratio in experiment [1] was 16000. Besides, the pA2 is reported as 4.18 in experiment [4] and 8.39 in experiment [3].
As for `CCc1ccc([C@@H]2Oc3ccccc3O[C@@H]2CNCCOc2c(OC)cccc2OC)cc1`, the Ratio in experiment [1] was > 500. The pA2 in experiment [3] is on record as 7.23; in experiment [5] it was < 4.52.
Turning to `COc1cccc(OC)c1OCCNC[C@H]1Oc2ccccc2O[C@@H]1c1ccc(C)cc1`, the Ratio in experiment [1] was 21000. Besides, the pA2 in experiment [4] worked out at 4.37; in experiment [3] it was 8.69.
With `COc1cccc(OC)c1OCCNC[C@H]1Oc2ccccc2O[C@H]1c1ccc(C)cc1`, in experiment [1], the Ratio amounted to 73. Also, the pA2 is 7.1 in experiment [3] and 5.24 in experiment [6].
